From patent EP1202975B1, “SUBSTITUTED POLYCYCLIC ARYL AND HETEROARYL PYRAZINONES USEFUL FOR SELECTIVE INHIBITION OF THE COAGULATION CASCADE” (Pharmacia Corporation, priority 1999, dated 2000)
Read-outs that look alike come from different tables or passages of the source.

How the values were obtained:
Human factor Xa = Human factor Xa (Homo sapiens, UniProt P00742); assay: Xa Assay; details: for IC50: read-out: IC50 or % Inhibition Factor Xa (30 µM), cells given as a plain number (IC50); for IC50 or % Inhibition Factor Xa (30 µM): % inhibition at 30 µM
TF-VIIa = target: T1, TF-VIIa (Homo sapiens, UniProt P08709); assay: TF-VIIa Assay; type: biochemical
T1 construct: 2nM recombinant human factor VIIa; purchased American Diagnostica, Greenwich CT; host or cells: soluble TF made in house in E. coli

[1] = read-out: IC50 or % Inhibition TF-VIIa (30 µM); cells given as a plain number (IC50)
[2] = cells given as a plain number (IC50); read-out: IC50 or % Inhibition TF-VIIa (30 µM)

T1 sequence (P08709 213-466 limits assumed): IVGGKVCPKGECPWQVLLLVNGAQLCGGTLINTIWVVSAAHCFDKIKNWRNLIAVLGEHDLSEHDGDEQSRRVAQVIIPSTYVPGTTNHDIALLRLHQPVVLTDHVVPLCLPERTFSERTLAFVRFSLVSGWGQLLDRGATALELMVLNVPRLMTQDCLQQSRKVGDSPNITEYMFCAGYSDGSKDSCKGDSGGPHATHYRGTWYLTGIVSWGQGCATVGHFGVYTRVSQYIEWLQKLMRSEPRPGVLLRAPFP
T1 sequence (P08709 61-212 limits assumed): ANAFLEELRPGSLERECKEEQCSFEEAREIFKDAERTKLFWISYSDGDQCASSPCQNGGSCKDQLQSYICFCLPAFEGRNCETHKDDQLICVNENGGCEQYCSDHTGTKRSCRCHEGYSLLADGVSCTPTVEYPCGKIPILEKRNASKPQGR
T1 sequence (P13726 33-251 partner limits assumed): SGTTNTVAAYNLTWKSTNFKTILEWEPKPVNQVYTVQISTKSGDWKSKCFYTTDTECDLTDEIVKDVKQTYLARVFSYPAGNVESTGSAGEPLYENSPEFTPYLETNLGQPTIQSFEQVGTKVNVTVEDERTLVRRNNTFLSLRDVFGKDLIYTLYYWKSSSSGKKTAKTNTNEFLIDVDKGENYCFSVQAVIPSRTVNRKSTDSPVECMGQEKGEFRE
Sequence of Human factor Xa (P00742 235-488 limits assumed): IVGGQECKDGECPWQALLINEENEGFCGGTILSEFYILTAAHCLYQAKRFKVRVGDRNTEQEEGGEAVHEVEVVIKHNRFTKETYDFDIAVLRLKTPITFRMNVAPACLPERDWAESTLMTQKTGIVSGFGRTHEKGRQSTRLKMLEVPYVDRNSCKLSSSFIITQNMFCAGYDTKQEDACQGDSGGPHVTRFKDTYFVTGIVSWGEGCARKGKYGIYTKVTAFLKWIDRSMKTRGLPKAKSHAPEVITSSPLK
Sequence of Human factor Xa (P00742 41-179 limits assumed): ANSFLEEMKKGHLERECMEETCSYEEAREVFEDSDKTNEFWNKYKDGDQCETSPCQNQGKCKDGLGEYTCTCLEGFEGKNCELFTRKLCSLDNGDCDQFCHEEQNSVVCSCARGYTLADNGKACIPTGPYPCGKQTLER

IC50 (Human factor Xa)	IC50 (TF-VIIa; [1])	IC50 or % Inhibition TF-VIIa (30 µM) (TF-VIIa)	IC50 or % Inhibition Factor Xa (30 µM) (Human factor Xa)	IC50 (TF-VIIa; [2])	Compound
> 30 µM	20 µM				N=C(N)c1ccc(CNC(=O)Cn2c(-c3ccccc3)c(Cl)nc(NCCc3ccc(Br)cc3)c2=O)cc1 [1507-06]
> 30 µM	6.7 µM				COc1cccc(CCNc2nc(Cl)c(-c3ccccc3)n(CC(=O)NCc3ccc(C(=N)N)cc3)c2=O)c1 [1507-12]
> 30 µM	26.7 µM				COc1ccc(CNc2nc(Cl)c(-c3ccccc3)n(CC(=O)NCc3ccc(C(=N)N)cc3)c2=O)cc1 [1507-13]
> 30 µM	12 µM				N=C(N)c1ccc(CNC(=O)Cn2c(-c3ccccc3)c(Cl)nc(NCc3ccccc3C(F)(F)F)c2=O)cc1 [1507-15]
> 30 µM		45%			N=C(N)c1ccc(CNC(=O)Cn2c(-c3ccccc3)c(Cl)nc(NCc3ccc(Cl)cc3Cl)c2=O)cc1 [1507-22]
> 30 µM	20.5 µM				N=C(N)c1ccc(CNC(=O)Cn2c(-c3ccccc3)c(Cl)nc(NCc3ccc(F)cc3F)c2=O)cc1 [1507-26]
> 30 µM		38%			N=C(N)c1ccc(CNC(=O)Cn2c(-c3ccccc3)c(Cl)nc(NCc3cccc4ccccc34)c2=O)cc1 [1507-28]
> 30 µM	13.4 µM				N=C(N)c1ccc(CNC(=O)Cn2c(-c3ccccc3)c(Cl)nc(NCc3ccc(Br)cc3)c2=O)cc1 [1507-30]
> 30 µM	8.5 µM				C[C@H](Nc1nc(Cl)c(-c2ccccc2)n(CC(=O)NCc2ccc(C(=N)N)cc2)c1=O)c1ccccc1 [1507-34]
> 30 µM	16 µM				N=C(N)c1ccc(CNC(=O)Cn2c(-c3ccccc3)c(Cl)nc(NCc3cccc(Cl)c3)c2=O)cc1 [1507-38]
> 30 µM	11.6 µM				N=C(N)c1ccc(CNC(=O)Cn2c(-c3ccccc3)c(Cl)nc(NCc3cccc(F)c3)c2=O)cc1 [1507-42]
> 30 µM	7.3 µM				Cc1ccc(CCNc2nc(Cl)c(-c3ccccc3)n(CC(=O)NCc3ccc(C(=N)N)cc3)c2=O)cc1 [1507-45]
> 30 µM	7 µM				N=C(N)c1ccc(CNC(=O)Cn2c(-c3cccc(C(F)(F)F)c3)c(Cl)nc(NCc3ccccc3)c2=O)cc1 [1515-01]
> 30 µM	3.8 µM				COc1ccccc1-c1c(Cl)nc(NCc2ccccc2)c(=O)n1CC(=O)NCc1ccc(C(=N)N)cc1 [1515-02]

Further lines, the compound ahead of its results:

Compound	IC50 (Human factor Xa)	IC50 (TF-VIIa; [1])	IC50 or % Inhibition TF-VIIa (30 µM) (TF-VIIa)	IC50 or % Inhibition Factor Xa (30 µM) (Human factor Xa)	IC50 (TF-VIIa; [2])
N=C(N)c1ccc(CNC(=O)Cn2c(-c3ccccc3)c(Cl)nc(NC(Cc3ccccc3)c3ccccc3)c2=O)cc1 (stereo not drawn) [1507-07]	> 30 µM		25%		
COc1ccc(CCNc2nc(Cl)c(-c3ccccc3)n(CC(=O)NCc3ccc(C(=N)N)cc3)c2=O)cc1 [1507-11]	> 30 µM	3 µM			
N=C(N)c1ccc(CNC(=O)Cn2c(-c3ccccc3)c(Cl)nc(NC3CCCC3)c2=O)cc1 [1507-25]	> 30 µM	1.6 µM			
N=C(N)c1ccc(CNC(=O)Cn2c(-c3ccccc3)c(Cl)nc(NC3CCCCCC3)c2=O)cc1 [1507-29]				4%	5.8 µM
N=C(N)c1ccc(CNC(=O)Cn2c(-c3ccccc3)c(Cl)nc(NC3CC3)c2=O)cc1 [1507-31]	> 30 µM	3.7 µM			
CC(C)CNc1nc(Cl)c(-c2ccccc2)n(CC(=O)NCc2ccc(C(=N)N)cc2)c1=O [1507-32]	> 30 µM				21.3 µM
N=C(N)c1ccc(CNC(=O)Cn2c(-c3ccccc3)c(Cl)nc(NC3CCS(=O)(=O)C3)c2=O)cc1 (stereo not drawn) [1507-36]				0%	13.8 µM
CCCCNc1nc(Cl)c(-c2ccccc2)n(CC(=O)NCc2ccc(C(=N)N)cc2)c1=O [1512-14]				7%	3.2 µM
N=C(N)c1ccc(CNC(=O)Cn2c(-c3ccccc3)c(Cl)nc(NC3CCCCCC3)c2=O)cc1 [1512-16]				10%	6.5 µM
N=C(N)c1ccc(CNC(=O)Cn2c(-c3ccccc3)c(Cl)nc(NC3CCS(=O)(=O)C3)c2=O)cc1 (stereo not drawn) [1512-19]				3%	14.3 µM
